Results taken from patent US9926299B2, “Inhibitors of bruton's tyrosine kinase” (Centaurus BioPharma Co., Ltd., priority 2012, dated 2018).
pIC50: −log10 of the molar value.

Columns and labels:
[1] = biological target: BTK kinase (Homo sapiens (Human), UniProt Q06187); test: Btk kinase enzymatic assay (HTRF); format: biochemical; details: ATP at Km
Protocol: Btk kinase activity was determined using a Homogeneous Time-Resolved Fluorescence (HTRF) methodology (Cisbio). […] The mixture was centrifuged and incubated for 5 min. […] For each compound, enzyme activity was measured at various concentrations of compound, and IC50s were obtained by GraFit Software 6.0 (Erithacus Software).

[2] = test system: Ramos cells; test: BCR-induced calcium flux fluorescence-based assay in Ramos cells; details: Ramos cells stimulated with goat anti-human IgM antibody; read-out: Ramos Cell Ca Flux IC50
Protocol: Calcium flux fluorescence-based assays were performed using Fluo-4 Direct™ Calcium Assay Kits (purchased from Invitrogen) in a FlexStation III (purchased from Molecular Devices) according to manufacturer instructions. In brief, actively growing Romas cells in RPM1-1640 medium (purchased from Invitrogen) supplemented with 10% FBS (purchased from Hyclone) were washed and re-plated in low serum medium at approximately 1×10^5 cells per 45 μL per well in a 96-well plate (purchased from Corning), then added 45 μL of dye (purchased from Invitrogen) and incubated at 37 degree for 1 hour. Compounds to be assayed were dissolved and 3-fold serially diluted in DMSO and then diluted by 100 times in low serum medium. Then 10 μL of the diluted mixture were added to the above 96-well plate (final DMSO concentration was 0.1%) and incubated at 37 degree in 5% CO2 incubator for 0.5 hour. The compound-treated cells were stimulated with a goat anti-human IgM antibody (10 μg/ml; purchased from SouthernBiotech) and read in the FlexStation III using a λEx=494 nM and […] for 90 seconds. The relative fluorescence unit (RFU) and the IC50 were recorded and analyzed using a GraphPad Prism 5 (GraphPad Software).

BTK kinase, sequence (Q06187 whole entry): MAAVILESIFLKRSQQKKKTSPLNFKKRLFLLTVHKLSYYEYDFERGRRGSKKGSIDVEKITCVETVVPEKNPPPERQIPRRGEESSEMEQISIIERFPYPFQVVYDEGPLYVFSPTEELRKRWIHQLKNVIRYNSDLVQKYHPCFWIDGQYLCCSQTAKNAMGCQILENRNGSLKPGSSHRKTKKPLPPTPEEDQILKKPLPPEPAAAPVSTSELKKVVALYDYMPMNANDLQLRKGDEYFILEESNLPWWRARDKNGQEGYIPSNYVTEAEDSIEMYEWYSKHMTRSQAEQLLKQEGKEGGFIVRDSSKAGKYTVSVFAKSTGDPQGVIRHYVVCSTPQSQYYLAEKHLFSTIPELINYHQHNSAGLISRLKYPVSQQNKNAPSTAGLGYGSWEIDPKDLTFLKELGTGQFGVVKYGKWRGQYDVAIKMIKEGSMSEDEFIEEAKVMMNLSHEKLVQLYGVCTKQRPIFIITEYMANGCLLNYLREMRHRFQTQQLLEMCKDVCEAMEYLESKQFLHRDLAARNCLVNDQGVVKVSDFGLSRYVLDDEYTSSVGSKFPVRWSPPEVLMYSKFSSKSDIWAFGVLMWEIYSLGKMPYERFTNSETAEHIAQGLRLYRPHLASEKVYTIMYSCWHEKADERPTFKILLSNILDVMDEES

Row | pIC50 [1] | pIC50 [2] | SMILES
1 | > 7.00 | > 7.00 | C=CS(=O)(=O)N1CCCC(n2nc(-c3ccc(Oc4ccccc4)cc3)c(C(N)=O)c2N)C1 (stereo not drawn) [Example 27, 5-amino-3-(4-phenoxyphenyl)-1-(1-(vinylsulfonyl)piperidin-3-yl)-1H-pyrazole-4-carboxamide]
2 | > 7.00 | > 7.00 | C=CC(=O)N1CC[C@@H](n2nc(-c3ccc(Oc4cccc([N+](=O)[O-])c4)c(C)c3)c(C(N)=O)c2N)C1 [Example 49, (R)-1-(1-acryloylpyrrolidin-3-yl)-5-amino-3-(3-methyl-4-(3-nitrophenoxy)phenyl)-1H-pyrazole-4-carboxamide]
3 | > 7.00 | > 7.00 | NC(=O)c1c(-c2ccc(Oc3ccccc3)cc2)nn(C2CCCCC2)c1N [Example 20, 5-amino-1-cyclohexyl-3-(4-phenoxyphenyl)-1H-pyrazole-4-carboxamide]
